The source of these data is the supplement of paper PMC11061612.

The structures appear in SMILES notation.

Holding throughout (experiment): combination Emax (second highest fraction inhibited in the dose matrix, 72 h); higher = more inhibition; extreme values may be limits of the assay
One experiment deals with 769-P (Kidney Carcinoma). In short, it runs like this:
(§1)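 Cell lines grown in DMEM/F12 or RPMI with 10% FBS were plated in 1536-well plates and held 24 hours at 37°C, 5% CO2 before 72 hours of exposure to two-drug dose matrices, with DMSO typically at 0.2%. CellTiter-Glo 2.0 luminescence gave viability, which was converted to inhibition. Vehicle wells were set to 0 and blank wells to 1. Combination Emax is the second-highest inhibition in the matrix, and Bliss excess is the observed combination effect minus the expected EA + EB − EA·EB, where EA and EB are the single-agent effects.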

Experiment [1] has as its system A2780 (Ovarian Carcinoma). A digest of the protocol:
as §1

Experiment [2] relates to CGTH-W-1 (Thyroid Gland Carcinoma). In short, it runs like this: as §1
The test system of the next experiment is EB2 (Burkitt's Lymphoma). A digest of the protocol:
as §1

Another experiment has as its system EW-7 (Ewing's Sarcoma). In short, it runs like this: as §1
Experiment [3] concerns HCC1395 (Breast Carcinoma). A digest of the protocol:
as §1

The test system of another experiment is IM-9 (Non-Cancerous). In short, it runs like this: as §1
The subject of experiment [4] is JHH-2 (Hepatocellular Carcinoma). A digest of the protocol: as §1
Experiment [5] has as its system JHU-022 (Oral Cavity Carcinoma). A digest of the protocol:
as §1

In experiment [6] the test system is LU-165 (Small Cell Lung Carcinoma). In short, it runs like this: as §1
Experiment [7] concerns MDA-MB-436 (Breast Carcinoma). In short, it runs like this: as §1
In experiment [8] the test system is MHH-ES-1 (Ewing's Sarcoma). In short, it runs like this:
as §1

Experiment [9] relates to NCI-H1651 (Lung Adenocarcinoma). In short, it runs like this:
as §1

Experiment [10] deals with NCI-H1703 (Squamous Cell Lung Carcinoma). A digest of the protocol: as §1
Experiment [11] relates to NCI-H2087 (Lung Adenocarcinoma). In short, it runs like this:
as §1

Experiment [12] concerns NCI-H441 (Lung Adenocarcinoma). A digest of the protocol: as §1
The test system of another experiment is PEO1 (Ovarian Carcinoma). A digest of the protocol: as §1
The test system of experiment [13] is SK-HEP-1 (Hepatocellular Carcinoma). A digest of the protocol:
as §1

For experiment [14], the system named is SW620 (Colorectal Carcinoma). In short, it runs like this: as §1
The test system of the next experiment is WM1552C (Melanoma). A digest of the protocol:
as §1

In the case of `CN(CCO)CC[C@H](CSc1ccccc1)Nc1ccc(S(=O)(=O)NC(=O)c2ccc(N3CCC([C@@H](O)c4ccccc4-c4ccc(Cl)cc4)CC3)cc2)cc1S(=O)(=O)C(F)(F)F` [AZD4320] + C1CN(CCC1(C(=O)N[C@@H](CCO)C2=CC=C(C=C2)Cl)N)C3=NC=NC4=C3C=CN4 [Capivasertib] (first compound max 1 µM, 7x7, partner max 3 µM), the “combination Emax” value is 0.576 with 769-P (Kidney Carcinoma); 0.515 in experiment [1]; 0.19 in [2]; 0.534 with EB2 (Burkitt's Lymphoma); 0.861 with EW-7 (Ewing's Sarcoma); 0.408 in [3]. Besides, the “combination Emax” value is 0.586 in the experiment on IM-9 (Non-Cancerous); 0.539 in experiment [4]; 0.308 in [5]; 0.581 in [6]; 0.142 in experiment [7]; 0.48 in experiment [8]. The “combination Emax” value in experiment [9] is 0.193; in experiment [10] it was 0.402; in [11], 0.232; in [12], 0.173; in the experiment with PEO1 (Ovarian Carcinoma) it was 0.432; in experiment [13], 0.245. Moreover, the “combination Emax” value stood at 0.137 in experiment [14] and 0.183 in the experiment with WM1552C (Melanoma).
Regarding `CN(CCO)CC[C@H](CSc1ccccc1)Nc1ccc(S(=O)(=O)NC(=O)c2ccc(N3CCC([C@@H](O)c4ccccc4-c4ccc(Cl)cc4)CC3)cc2)cc1S(=O)(=O)C(F)(F)F` [AZD4320] + C=CCn1c(=O)c2cnc(Nc3ccc(N4CCN(C)CC4)cc3)nc2n1-c1cccc(C(C)(C)O)n1 [AZD1775] (first compound max 1 µM, partner max 1 µM), the “combination Emax” value was 0.962 in the experiment on 769-P (Kidney Carcinoma); 0.666 in [1]; 0.106 in experiment [2]; 0.866 in the experiment with EB2 (Burkitt's Lymphoma); 1 in the experiment on EW-7 (Ewing's Sarcoma); 0.69 in [3]. For the same compound, the “combination Emax” value in the experiment on IM-9 (Non-Cancerous) stood at 1; in experiment [4], 0.604; in experiment [5], 0.579; in experiment [6], 0.681; in experiment [7], 0.196; in experiment [8], 0.947. Also, the “combination Emax” value in experiment [9] amounted to 0.746; in [10], 0.972; in experiment [11], 0.68; in [12], 0.552; in the experiment with PEO1 (Ovarian Carcinoma), 0.529; in experiment [13], 0.327. Further, the “combination Emax” value in experiment [14] was found to be 0.931; with WM1552C (Melanoma), 0.471.
`CN(CCO)CC[C@H](CSc1ccccc1)Nc1ccc(S(=O)(=O)NC(=O)c2ccc(N3CCC([C@@H](O)c4ccccc4-c4ccc(Cl)cc4)CC3)cc2)cc1S(=O)(=O)C(F)(F)F` [AZD4320] + CC(=O)O[C@H]1C(=O)[C@@]2(C)[C@H]([C@H](OC(=O)c3ccccc3)[C@]3(O)C[C@H](OC(=O)[C@H](O)[C@@H](NC(=O)c4ccccc4)c4ccccc4)C(C)=C1C3(C)C)[C@]1(OC(C)=O)CO[C@@H]1C[C@@H]2O [Paclitaxel] (first compound max 1 µM, 7x7, partner max 3 µM): the “combination Emax” value in the experiment on 769-P (Kidney Carcinoma) was 0.958; in experiment [1] it was 0.946; in experiment [2], 0.881; in the experiment with EB2 (Burkitt's Lymphoma) it was 0.802; with EW-7 (Ewing's Sarcoma) it was 1; in experiment [3] it was 0.838. Moreover, the “combination Emax” value in the experiment on IM-9 (Non-Cancerous) was 1; in experiment [4], 0.93; in [5], 0.846; in experiment [6] it was 0.88; in experiment [7] it was 0.65; in experiment [8], 1. The “combination Emax” value in experiment [9] was 0.981; in [10] it was 0.976; in experiment [11], 0.976; in experiment [12], 0.735; with PEO1 (Ovarian Carcinoma), 0.852; in experiment [13], 0.952. The “combination Emax” value in experiment [14] was determined as 1; in the experiment with WM1552C (Melanoma), 0.941.
With `CN(CCO)CC[C@H](CSc1ccccc1)Nc1ccc(S(=O)(=O)NC(=O)c2ccc(N3CCC([C@@H](O)c4ccccc4-c4ccc(Cl)cc4)CC3)cc2)cc1S(=O)(=O)C(F)(F)F` [AZD4320] + CCN(CCO)CCCOc1ccc2c(Nc3cc(CC(=O)Nc4cccc(F)c4)[nH]n3)ncnc2c1 [AZD2811] (first compound max 1 µM, 7x7, partner max 1 µM), the “combination Emax” value with 769-P (Kidney Carcinoma) turned out to be 0.752; in [1], 0.49; in experiment [2] it was 0.292; with EB2 (Burkitt's Lymphoma) it was 0.338; in the experiment with EW-7 (Ewing's Sarcoma), 0.817; in experiment [3] it was 0.309. Also, the “combination Emax” value in the experiment on IM-9 (Non-Cancerous) was determined as 1; in experiment [4], 0.169; in experiment [5], 0.315; in [6], 0.486; in experiment [7], 0.0639; in experiment [8] it was 0.924. Also, the “combination Emax” value was 0.204 in [9]; 0.473 in experiment [10]; 0.464 in experiment [11]; 0.202 in [12]; 0.454 in the experiment with PEO1 (Ovarian Carcinoma); 0.793 in [13]. Further, the figures for the “combination Emax” value (in experiment [14]; in the experiment on WM1552C (Melanoma)) were 0.946 and 0.481, respectively.
In the case of `CN(CCO)CC[C@H](CSc1ccccc1)Nc1ccc(S(=O)(=O)NC(=O)c2ccc(N3CCC([C@@H](O)c4ccccc4-c4ccc(Cl)cc4)CC3)cc2)cc1S(=O)(=O)C(F)(F)F` [AZD4320] + C[C@@H]1COCCN1C2=NC(=NC(=C2)C3(CC3)[S@](=N)(=O)C)C4=C5C=CNC5=NC=C4 [AZD6738] (first compound max 1 µM, 7x7, partner max 10 µM), the “combination Emax” value worked out at 0.966 in the experiment with 769-P (Kidney Carcinoma); 0.799 in experiment [1]; 0.424 in [2]; 0.835 in the experiment on EB2 (Burkitt's Lymphoma); 1 in the experiment on EW-7 (Ewing's Sarcoma); 0.819 in [3]. Also, the “combination Emax” value was determined as 1 in the experiment with IM-9 (Non-Cancerous); 0.792 in experiment [4]; 0.753 in experiment [5]; 0.776 in experiment [6]; 0.34 in experiment [7]; 0.85 in experiment [8]. Also, the “combination Emax” value in experiment [9] was 0.728; in experiment [10], 0.892; in experiment [11], 0.919; in [12], 0.69; in the experiment with PEO1 (Ovarian Carcinoma), 0.686; in experiment [13], 0.411. Besides, the “combination Emax” value in [14] was 0.793; in the experiment on WM1552C (Melanoma), 0.73.
